Where two headings read alike, the source gives them in different places.
Columns and labels:
[1] = system: patients with major depressive disorder (MDD) resistant to treatment with SSRIs
Protocol: (§1) Documentation of the presence of any side effect or adverse event is completed at every visit using the SAFTEE-SI. Subjects can contact a clinician at any time between visits concerning adverse events or worsening of symptoms. Suicidal ideation is assessed at each visit. Subjects who are felt by the study clinician to be at high risk for suicide are discontinued from the study and referred for hospitalization and further treatment if clinically indicated (See Tables 4 & 5 below).
(§2) One-way analysis of variance can be used to assess differences in total number of SAFTEE-SI AEs between baseline and endpoint.
The study involved the enrollment of a total of 148 patients with MDD over the course of 12 months across 10 medical centers or hospitals in the United States. […] In accordance with the sequential parallel design, the 60-day, double-blind treatment was divided into two phases of 30 days each, with assessments performed every 10 days. […] For those randomly assigned to the placebo/placebo sequence, both responders and non-responders to placebo during the first phase remained on placebo during the second phase.

[2] = system: patients with major depressive disorder (MDD) resistant to treatment with SSRIs; remark: listed apart in the source
Protocol: as §1, §2

[3] = system: MDD patients with at least one rare variant in an indicated SNP biomarker; details: CACNA1C rs1006737 (AG), 13(30, 16); with an SSRI
[4] = L-methylfolate 7.5 mg (n = 24) with SSRI
[5] = L-methylfolate 7.5 mg vs placebo
[6] = L-methylfolate 16 mg (n = 30) with SSRI
[7] = L-methylfolate 16 mg vs placebo
[8] = L-methylfolate 15 mg (n = 42) with SSRI
[9] = L-methylfolate 15 mg vs placebo

CN1c2c(nc(N)[nH]c2=O)NC[C@@H]1CNc1ccc(C(=O)N[C@@H](CCC(=O)O)C(=O)O)cc1 [6(S)-5-MTHF, 6(S)-5-methyltetrahydrofolate]
Cardiovascular side effects, Frequency (%) [1, 4]: 0 (0%)
Gastrointestinal side effects, Frequency (%) [1, 4]: 9 (9.8%)
Infectious side effects, Frequency (%) [1, 4]: 6 (6.4%)
Miscellaneous side effects, Frequency (%) [1, 4]: 1 (1.1%)
Paychological [sic] side effects, Frequency (%) [1, 4]: 2 (2.1%)
Sexual side effects, Frequency (%) [1, 4]: 0 (0%)
Sleep side effects, Frequency (%) [1, 4]: 3 (3.2%)
Somatic side effects, Frequency (%) [1, 4]: 9 (8.6%)
Cardiovascular side effects, NNH [1, 5]: < placebo
Gastrointestinal side effects, NNH [1, 5]: < placebo
Infectious side effects, NNH [1, 5]: < placebo
Miscellaneous side effects, NNH [1, 5]: < placebo
Paychological [sic] side effects, NNH [1, 5]: < placebo
Sexual side effects, NNH [1, 5]: =placebo
Sleep side effects, NNH [1, 5]: < placebo
Somatic side effects, NNH [1, 5]: < placebo
Cardiovascular side effects, Frequency (%) [1, 6]: 2 (6.7%)
Gastrointestinal side effects, Frequency (%) [1, 6]: 3 (10.0%)
Infectious side effects, Frequency (%) [1, 6]: 2 (6.7%)
Miscellaneous side effects, Frequency (%) [1, 6]: 2 (6.7%)
Paychological [sic] side effects, Frequency (%) [1, 6]: 2 (6.7%)
Sexual side effects, Frequency (%) [1, 6]: 0 (0%)
Sleep side effects, Frequency (%) [1, 6]: 2 (6.7%)
Somatic side effects, Frequency (%) [1, 6]: 3 (10.0%)
Cardiovascular side effects, NNH [1, 7]: < placebo
Gastrointestinal side effects, NNH [1, 7]: < placebo
Infectious side effects, NNH [1, 7]: < placebo
Miscellaneous side effects, NNH [1, 7]: < placebo
Paychological [sic] side effects, NNH [1, 7]: < placebo
Sexual side effects, NNH [1, 7]: =placebo
Sleep side effects, NNH [1, 7]: < placebo
Somatic side effects, NNH [1, 7]: < placebo
adverse side effect when administered with an SSRI (in words) ([1]; Trial 1): does not appear to cause any adverse side effect
Cardiovascular side effects, Frequency (%) [2, 8]: (0%)
Cardiovascular side effects, Frequency (number of subjects) [2, 8]: 0
Gastrointestinal side effects, Frequency (number of subjects) [2, 8]: 7
Infectious side effects, Frequency (number of subjects) [2, 8]: 5
Miscellaneous side effects, Frequency (%) [2, 8]: (2.4%)
Miscellaneous side effects, Frequency (number of subjects) [2, 8]: 1
Psychological side effects, Frequency (%) [2, 8]: (9.5%)
Psychological side effects, Frequency (number of subjects) [2, 8]: 4
Sexual side effects, Frequency (%) [2, 8]: (2.4%)
Sexual side effects, Frequency (number of subjects) [2, 8]: 1
Sleep side effects, Frequency (%) [2, 8]: (2.4%)
Sleep side effects, Frequency (number of subjects) [2, 8]: 1
Somatic side effects, Frequency (number of subjects) [2, 8]: 6
Cardiovascular side effects, NNH [2, 9]: =placebo
Gastrointestinal side effects, NNH [2, 9]: 53
Infectious side effects, NNH [2, 9]: <placebo
Miscellaneous side effects, NNH [2, 9]: <placebo
Psychological side effects, NNH [2, 9]: <placebo
Sexual side effects, NNH [2, 9]: 98
Sleep side effects, NNH [2, 9]: <placebo
Somatic side effects, NNH [2, 9]: <placebo
number of adverse events by SAFTEE-SI vs placebo (in words) ([2]; SSRI + 15 mg/day): no significant differences
discontinuation from the study due to overall adverse side-effects or exclusion events (in words) ([2]; Trial 2, FIG. 3E): no difference
EFFECT on change in HAMD-28, PHASE I [3]: −8.006
EFFECT on change in HAMD-28, PHASE II [3]: −2.467
EFFECT on change in HAMD-28, POOLED PHASES [3]: −4.633

— patent US9540691B2, “Assays and methods for selecting a treatment regimen for a subject with depression” (THE GENERAL HOSPITAL CORPORATION, priority 2011, dated 2017)
